Results: the kinase profiling compilation of Christmann-Franck et al. (2016)

Experiments:
Test in all cases: KINOMEscan competition binding
Conditions in all cases: compound 10.0 µM
[1] = molecular target: BLK (human) (UniProt P51451)
[2] = molecular target: BRSK2 (human) (UniProt Q8IWQ3)
[3] = molecular target: CAMK1D (human) (UniProt Q8IU85)
[4] = molecular target: CAMK2D (human) (UniProt Q13557)
[5] = molecular target: CDC2L2 (human) (UniProt Q9UQ88)
[6] = molecular target: CDK15 (human) (UniProt Q96Q40)
[7] = molecular target: CDK9 (human) (UniProt P50750)
[8] = molecular target: CDKL3 (human) (UniProt Q8IVW4)
Chain of CDKL3 (human) (Q8IVW4 whole entry, looked up): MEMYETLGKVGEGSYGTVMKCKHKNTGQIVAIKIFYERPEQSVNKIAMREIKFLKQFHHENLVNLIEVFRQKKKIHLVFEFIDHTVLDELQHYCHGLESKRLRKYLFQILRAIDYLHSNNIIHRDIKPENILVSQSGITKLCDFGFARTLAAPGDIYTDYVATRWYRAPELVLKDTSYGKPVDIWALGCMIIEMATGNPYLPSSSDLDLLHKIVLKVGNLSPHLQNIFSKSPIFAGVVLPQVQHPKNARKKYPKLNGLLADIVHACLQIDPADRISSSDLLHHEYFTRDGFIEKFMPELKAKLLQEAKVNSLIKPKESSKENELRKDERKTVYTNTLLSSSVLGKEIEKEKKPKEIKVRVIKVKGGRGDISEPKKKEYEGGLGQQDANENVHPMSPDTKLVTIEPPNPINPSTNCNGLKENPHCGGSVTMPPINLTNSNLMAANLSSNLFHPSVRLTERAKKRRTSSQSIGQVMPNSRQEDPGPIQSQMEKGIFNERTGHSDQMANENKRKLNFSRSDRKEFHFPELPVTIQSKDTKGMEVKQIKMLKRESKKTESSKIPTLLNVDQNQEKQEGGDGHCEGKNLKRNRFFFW

[9] = molecular target: CHEK1 (human) (UniProt O14757)
[10] = molecular target: CLK1 (human) (UniProt P49759)
[11] = molecular target: CLK4 (human) (UniProt Q9HAZ1)
[12] = molecular target: CSNK1G2 (human) (UniProt P78368)
[13] = molecular target: DDR1 (human) (UniProt Q08345)
[14] = molecular target: FGFR2 (human) (UniProt P21802)
[15] = molecular target: GRK1 (human) (UniProt Q15835)
Chain of GRK1 (human) (Q15835 whole entry, looked up): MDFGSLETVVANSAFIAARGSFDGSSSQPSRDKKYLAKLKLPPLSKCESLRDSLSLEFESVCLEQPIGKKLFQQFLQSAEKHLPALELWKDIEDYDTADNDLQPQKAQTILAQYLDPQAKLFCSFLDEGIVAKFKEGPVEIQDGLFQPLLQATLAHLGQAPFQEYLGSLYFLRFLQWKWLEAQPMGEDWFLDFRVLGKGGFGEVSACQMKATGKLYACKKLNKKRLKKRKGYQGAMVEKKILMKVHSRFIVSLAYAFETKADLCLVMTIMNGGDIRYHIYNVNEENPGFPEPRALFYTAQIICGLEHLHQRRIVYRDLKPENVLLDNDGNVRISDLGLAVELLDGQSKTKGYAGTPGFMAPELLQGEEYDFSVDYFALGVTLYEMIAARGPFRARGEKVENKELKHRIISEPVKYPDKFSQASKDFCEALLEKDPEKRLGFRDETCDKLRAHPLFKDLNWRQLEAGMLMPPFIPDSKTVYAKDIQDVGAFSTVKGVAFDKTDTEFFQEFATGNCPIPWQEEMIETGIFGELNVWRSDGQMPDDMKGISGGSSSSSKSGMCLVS

[16] = molecular target: HIPK1 (human) (UniProt Q86Z02)
[17] = molecular target: HUNK (human) (UniProt P57058)
[18] = molecular target: KDR (human) (UniProt P35968)
[19] = molecular target: MAP3K13 (human) (UniProt O43283)
[20] = molecular target: MAP3K6 (human) (UniProt O95382)
Chain of MAP3K6 (human) (O95382 whole entry, looked up): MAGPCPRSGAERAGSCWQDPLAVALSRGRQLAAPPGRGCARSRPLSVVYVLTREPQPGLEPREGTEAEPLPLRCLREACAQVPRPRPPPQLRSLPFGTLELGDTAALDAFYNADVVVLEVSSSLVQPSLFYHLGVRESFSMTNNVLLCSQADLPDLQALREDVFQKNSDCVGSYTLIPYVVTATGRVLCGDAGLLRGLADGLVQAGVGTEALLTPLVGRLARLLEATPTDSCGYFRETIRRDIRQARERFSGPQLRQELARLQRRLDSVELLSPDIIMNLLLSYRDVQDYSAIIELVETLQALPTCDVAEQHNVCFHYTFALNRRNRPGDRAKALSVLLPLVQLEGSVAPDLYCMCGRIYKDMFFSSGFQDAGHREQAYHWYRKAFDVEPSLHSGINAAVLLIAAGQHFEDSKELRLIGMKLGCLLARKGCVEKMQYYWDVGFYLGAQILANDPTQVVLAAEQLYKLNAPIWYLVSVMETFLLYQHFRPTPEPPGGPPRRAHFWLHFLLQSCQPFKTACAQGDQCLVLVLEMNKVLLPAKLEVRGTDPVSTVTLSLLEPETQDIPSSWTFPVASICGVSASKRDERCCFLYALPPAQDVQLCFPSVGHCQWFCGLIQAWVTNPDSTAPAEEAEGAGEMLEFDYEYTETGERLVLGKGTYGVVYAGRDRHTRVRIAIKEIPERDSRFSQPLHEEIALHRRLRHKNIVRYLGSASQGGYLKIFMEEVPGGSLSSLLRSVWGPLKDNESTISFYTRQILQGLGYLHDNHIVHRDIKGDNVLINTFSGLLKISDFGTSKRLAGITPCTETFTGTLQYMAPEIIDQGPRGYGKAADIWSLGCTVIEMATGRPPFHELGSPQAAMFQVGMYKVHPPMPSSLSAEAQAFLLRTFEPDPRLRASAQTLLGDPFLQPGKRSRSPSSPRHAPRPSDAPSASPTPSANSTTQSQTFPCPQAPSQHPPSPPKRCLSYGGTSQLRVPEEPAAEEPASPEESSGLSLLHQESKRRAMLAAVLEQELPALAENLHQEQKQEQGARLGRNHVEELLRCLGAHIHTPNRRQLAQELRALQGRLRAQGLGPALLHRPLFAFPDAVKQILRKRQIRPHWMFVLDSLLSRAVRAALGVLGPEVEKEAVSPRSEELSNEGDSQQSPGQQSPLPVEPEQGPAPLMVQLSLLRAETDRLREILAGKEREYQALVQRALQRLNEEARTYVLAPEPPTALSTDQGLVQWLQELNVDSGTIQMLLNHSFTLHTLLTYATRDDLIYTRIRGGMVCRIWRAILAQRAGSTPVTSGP

[21] = molecular target: MAP3K9 (human) (UniProt P80192)
[22] = molecular target: MAP4K2 (human) (UniProt Q12851)
[23] = molecular target: MAP4K4 (human) (UniProt O95819)
[24] = molecular target: MAPK13 (human) (UniProt O15264)
[25] = molecular target: MELK (human) (UniProt Q14680)
[26] = molecular target: MYLK (human) (UniProt Q15746)
[27] = molecular target: PAK1 (human) (UniProt Q13153)
[28] = molecular target: PKN1 (human) (UniProt Q16512)
Chain of PKN1 (human) (Q16512 whole entry, looked up): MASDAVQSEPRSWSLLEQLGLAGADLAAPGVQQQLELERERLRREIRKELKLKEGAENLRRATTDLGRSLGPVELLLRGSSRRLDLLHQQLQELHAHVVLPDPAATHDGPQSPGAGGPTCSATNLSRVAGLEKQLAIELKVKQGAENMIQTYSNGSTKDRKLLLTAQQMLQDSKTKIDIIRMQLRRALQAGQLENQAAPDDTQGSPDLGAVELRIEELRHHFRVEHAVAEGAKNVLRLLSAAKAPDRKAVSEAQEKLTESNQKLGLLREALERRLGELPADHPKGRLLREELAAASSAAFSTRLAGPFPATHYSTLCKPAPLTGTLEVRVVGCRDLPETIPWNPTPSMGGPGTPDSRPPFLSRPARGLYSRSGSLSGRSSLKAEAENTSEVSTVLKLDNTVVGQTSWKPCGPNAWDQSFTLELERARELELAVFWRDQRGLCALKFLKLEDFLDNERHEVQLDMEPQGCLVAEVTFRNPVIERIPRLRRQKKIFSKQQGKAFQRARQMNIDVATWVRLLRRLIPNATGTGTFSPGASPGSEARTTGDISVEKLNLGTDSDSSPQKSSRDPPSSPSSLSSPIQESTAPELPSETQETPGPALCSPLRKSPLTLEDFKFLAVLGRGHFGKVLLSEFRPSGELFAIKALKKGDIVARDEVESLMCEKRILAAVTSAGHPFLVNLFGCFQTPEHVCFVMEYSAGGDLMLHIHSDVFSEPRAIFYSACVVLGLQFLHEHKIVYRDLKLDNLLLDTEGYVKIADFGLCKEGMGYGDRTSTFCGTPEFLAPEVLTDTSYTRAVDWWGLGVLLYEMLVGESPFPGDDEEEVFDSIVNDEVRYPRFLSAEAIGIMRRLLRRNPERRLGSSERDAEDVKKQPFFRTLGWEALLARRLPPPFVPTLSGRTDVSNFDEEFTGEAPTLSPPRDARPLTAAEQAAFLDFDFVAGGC

[29] = molecular target: PRKCD (human) (UniProt Q05655)
Chain of PRKCD (human) (Q05655 whole entry, looked up): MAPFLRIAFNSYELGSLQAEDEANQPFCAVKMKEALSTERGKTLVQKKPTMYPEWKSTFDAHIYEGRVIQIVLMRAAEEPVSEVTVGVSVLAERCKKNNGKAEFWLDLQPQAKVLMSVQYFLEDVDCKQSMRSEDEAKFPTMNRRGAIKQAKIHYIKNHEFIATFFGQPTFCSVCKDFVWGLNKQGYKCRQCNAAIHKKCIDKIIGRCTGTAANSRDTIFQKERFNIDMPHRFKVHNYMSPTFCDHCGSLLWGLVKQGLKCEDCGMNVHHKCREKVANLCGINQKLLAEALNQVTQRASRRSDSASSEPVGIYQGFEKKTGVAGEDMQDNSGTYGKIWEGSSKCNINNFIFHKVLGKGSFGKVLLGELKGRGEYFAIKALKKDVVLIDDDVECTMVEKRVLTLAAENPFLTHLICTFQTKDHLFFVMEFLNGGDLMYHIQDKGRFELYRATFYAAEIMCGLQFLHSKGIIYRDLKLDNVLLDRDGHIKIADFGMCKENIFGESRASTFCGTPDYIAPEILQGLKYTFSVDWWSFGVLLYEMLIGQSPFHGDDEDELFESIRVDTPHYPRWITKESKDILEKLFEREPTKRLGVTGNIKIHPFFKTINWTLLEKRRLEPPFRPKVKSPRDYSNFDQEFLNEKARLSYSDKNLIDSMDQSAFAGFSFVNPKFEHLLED

[30] = molecular target: PRKCQ (human) (UniProt Q04759)
[31] = molecular target: PTK6 (human) (UniProt Q13882)
Chain of PTK6 (human) (Q13882 whole entry, looked up): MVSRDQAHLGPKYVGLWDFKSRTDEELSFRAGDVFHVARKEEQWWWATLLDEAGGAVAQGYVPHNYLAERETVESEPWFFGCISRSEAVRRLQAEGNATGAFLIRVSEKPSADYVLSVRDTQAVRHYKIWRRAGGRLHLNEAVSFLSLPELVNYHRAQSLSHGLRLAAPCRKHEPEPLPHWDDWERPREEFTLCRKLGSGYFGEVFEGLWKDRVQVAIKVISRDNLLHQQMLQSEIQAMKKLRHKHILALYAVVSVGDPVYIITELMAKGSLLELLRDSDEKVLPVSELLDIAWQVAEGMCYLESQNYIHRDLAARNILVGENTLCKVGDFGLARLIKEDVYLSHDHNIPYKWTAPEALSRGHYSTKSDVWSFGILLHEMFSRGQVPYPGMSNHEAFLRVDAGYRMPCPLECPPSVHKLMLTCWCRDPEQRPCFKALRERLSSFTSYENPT

[32] = molecular target: RPS6KA1 KD2 (human) (UniProt Q15418)
[33] = molecular target: STK24 (human) (UniProt Q9Y6E0)
[34] = molecular target: STK32A (human) (UniProt Q8WU08)
[35] = molecular target: STK32B (human) (UniProt Q9NY57)
Chain of STK32B (human) (Q9NY57 whole entry, looked up): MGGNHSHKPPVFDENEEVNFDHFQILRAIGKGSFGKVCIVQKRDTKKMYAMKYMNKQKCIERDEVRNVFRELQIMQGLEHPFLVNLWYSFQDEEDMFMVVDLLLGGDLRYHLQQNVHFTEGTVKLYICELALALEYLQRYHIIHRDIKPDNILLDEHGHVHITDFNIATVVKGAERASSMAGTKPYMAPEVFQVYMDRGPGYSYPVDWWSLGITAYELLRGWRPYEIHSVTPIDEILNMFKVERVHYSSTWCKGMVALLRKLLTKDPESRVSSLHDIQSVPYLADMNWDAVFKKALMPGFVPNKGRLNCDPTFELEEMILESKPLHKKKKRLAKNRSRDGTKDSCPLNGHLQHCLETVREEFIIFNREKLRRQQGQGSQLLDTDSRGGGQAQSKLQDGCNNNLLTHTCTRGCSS

[36] = molecular target: STK38 (human) (UniProt Q15208)
[37] = molecular target: STK39 (human) (UniProt Q9UEW8)
[38] = molecular target: STK4 (human) (UniProt Q13043)
[39] = molecular target: TAOK2 (human) (UniProt Q9UL54)
[40] = molecular target: ULK3 (human) (UniProt Q6PHR2)

Row | SMILES | kinase still bound, per cent of control [1] | kinase still bound, per cent of control [2] | kinase still bound, per cent of control [3] | kinase still bound, per cent of control [4] | kinase still bound, per cent of control [5] | kinase still bound, per cent of control [6] | kinase still bound, per cent of control [7] | kinase still bound, per cent of control [8] | kinase still bound, per cent of control [9] | kinase still bound, per cent of control [10] | kinase still bound, per cent of control [11] | kinase still bound, per cent of control [12] | kinase still bound, per cent of control [13] | kinase still bound, per cent of control [14] | kinase still bound, per cent of control [15] | kinase still bound, per cent of control [16] | kinase still bound, per cent of control [17] | kinase still bound, per cent of control [18] | kinase still bound, per cent of control [19] | kinase still bound, per cent of control [20] | also measured
1 | COc1cc(C(=O)N2CCC(N3CCN(C)CC3)CC2)ccc1Nc1ncc2c(n1)N(C)c1ccccc1C(=O)N2C | 97% | 64% | 69% | 28% | 82% | 100% | 100% | 83% | 100% | 28% | 54% | 100% | 100% | 95% | 91% | 100% | 100% | 84% | 100% | 100% | kinase still bound, per cent of control [21]: 93%; kinase still bound, per cent of control [22]: 100%; kinase still bound, per cent of control [23]: 85%; kinase still bound, per cent of control [24]: 72%; kinase still bound, per cent of control [25]: 100%; kinase still bound, per cent of control [26]: 8.7%; kinase still bound, per cent of control [27]: 95%; kinase still bound, per cent of control [28]: 100%; kinase still bound, per cent of control [29]: 75%; kinase still bound, per cent of control [30]: 100%; kinase still bound, per cent of control [31]: 58%; kinase still bound, per cent of control [32]: 10%; kinase still bound, per cent of control [33]: 87%; kinase still bound, per cent of control [34]: 100%; kinase still bound, per cent of control [35]: 100%; kinase still bound, per cent of control [36]: 96%; kinase still bound, per cent of control [37]: 39%; kinase still bound, per cent of control [38]: 100%; kinase still bound, per cent of control [39]: 65%; kinase still bound, per cent of control [40]: 100%
2 | N#CCNC(=O)c1ccc(-c2ccnc(Nc3ccc(N4CCOCC4)cc3)n2)cc1 | 100% | 100% | 40% | 34% | 58% | 58% | 55% | 60% | 100% | 9.6% | 15% | 100% | 100% | 58% | 100% | 8.9% | 100% | 99% | 77% | 100% | kinase still bound, per cent of control [21]: 45%; kinase still bound, per cent of control [22]: 40%; kinase still bound, per cent of control [23]: 85%; kinase still bound, per cent of control [24]: 100%; kinase still bound, per cent of control [25]: 100%; kinase still bound, per cent of control [26]: 100%; kinase still bound, per cent of control [27]: 100%; kinase still bound, per cent of control [28]: 66%; kinase still bound, per cent of control [29]: 54%; kinase still bound, per cent of control [30]: 100%; kinase still bound, per cent of control [31]: 100%; kinase still bound, per cent of control [32]: 80%; kinase still bound, per cent of control [33]: 64%; kinase still bound, per cent of control [34]: 100%; kinase still bound, per cent of control [35]: 93%; kinase still bound, per cent of control [36]: 59%; kinase still bound, per cent of control [37]: 47%; kinase still bound, per cent of control [38]: 100%; kinase still bound, per cent of control [39]: 100%; kinase still bound, per cent of control [40]: 0.25%
